Laboratory results published in patent US8906904B2, “Alkoxy pyrazoles as soluble guanylate cyclase activators” (Boehringer Ingelheim International GmbH, priority 2012, dated 2014).
In brackets after ≈: the same amount, converted by molar mass.

How the values were obtained:
[1] = Assessment of solubility (McIlvaine buffers, 24 h shake, UPLC-UV); format: physicochemical; conditions: kinetic from dmso stock
Procedure, shortened: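 Compounds from 10 mM DMSO stocks were shaken for 24 h at room temperature in McIlvaine buffers at pH 2.2, 4.5 and 6.8 (2.5% v/v DMSO final), then filtered. Filtrates were quantified by UPLC-UV at 254 nm against a 50:50 acetonitrile/water reference assumed fully dissolved, as a single determination.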

[2] = human liver microsome (HLM) metabolic stability assay; format: in vitro ADME; conditions: human liver microsomes; % hepatic blood flow calculated from t1/2
Procedure, shortened: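 Compounds at 1 uM incubated with human liver microsomes plus NADPH at 37° C., sampled at 0, 5, 15, 30 and 60 min into cold acetonitrile and quantified by LC/MS/MS. t½ from the slope of ln % remaining vs time; CLint, CLh and % Qh derived from it (n=1).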

Row | solubility at 24 h ([1]; pH 2.2, aqueous buffer) [µg/mL] | solubility at 24 h ([1]; pH 4.5, aqueous buffer) [µg/mL] | solubility at 24 h ([1]; pH 6.8, aqueous buffer) [µg/mL] | HLM (% Qh) [2] [% Qh] | SMILES
1 | 94 (≈ 168 µM) | 73 (≈ 131 µM) | 62 (≈ 111 µM) | <24 | COc1c(C(=O)O)cnn1-c1cccc(-c2cccc(C)c2OCc2ccc3c(c2F)CCN([C@@H]2CCOC2)C3)n1 [Compound 252]
2 | 100 (≈ 176 µM) | 85 (≈ 149 µM) | 80 (≈ 141 µM) | <24 | COc1c(C(=O)O)cnn1-c1cccc(-c2cccc(C)c2OCc2ccc3c(c2C)CCN(C[C@@H]2CCOC2)C3)n1 [Compound 191]
3 | 90 (≈ 154 µM) | 73 (≈ 125 µM) | 77 (≈ 132 µM) | 25 | CCOc1c(C(=O)O)cnn1-c1cccc(-c2cccc(C)c2OCc2ccc3c(c2C)CCN([C@@H]2CCOC2)CC3)n1 [Compound 227]
4 | 89 (≈ 160 µM) | 77 (≈ 139 µM) | 73 (≈ 132 µM) | <24 | COc1c(C(=O)O)cnn1-c1cccc(-c2cccc(C)c2OCc2ccc3c(c2)CCN(C[C@@H]2CCOC2)C3)n1 [Compound 188]
5 | 100 (≈ 179 µM) | 72 (≈ 129 µM) | 77 (≈ 138 µM) | <24 | COc1c(C(=O)O)cnn1-c1cccc(-c2cccc(C)c2OCc2ccc3c(c2F)CCN([C@H]2CCOC2)C3)n1 [Compound 251]
6 | 82 (≈ 140 µM) | 47 (≈ 80.1 µM) | 57 (≈ 97.2 µM) | <24 | CCOc1c(C(=O)O)cnn1-c1cccc(-c2cccc(C)c2OCc2ccc3c(c2C)CCN(CC2(F)COC2)C3)n1 [Compound 208]
7 | 110 (≈ 203 µM) | 83 (≈ 154 µM) | 99 (≈ 183 µM) | <24 | COc1c(C(=O)O)cnn1-c1cccc(-c2cccc(C)c2OCc2cc(C)c3c(c2)CCN(C2COC2)C3)n1 [Compound 186]
8 | 85 (≈ 146 µM) | 71 (≈ 122 µM) | 73 (≈ 125 µM) | <24 | COc1c(C(=O)O)cnn1-c1cccc(-c2cccc(C)c2OCc2ccc3c(c2C)CCN(C[C@H]2CCCO2)CC3)n1 [Compound 222]
9 | 87 (≈ 152 µM) | 68 (≈ 119 µM) | 66 (≈ 115 µM) | <24 | COc1c(C(=O)O)cnn1-c1cccc(-c2cccc(C)c2OCc2cc(F)c3c(c2)CCN(C2CCOCC2)C3)n1 [Compound 201]
10 | 100 (≈ 167 µM) | 83 (≈ 139 µM) | 82 (≈ 137 µM) | <24 | CCOc1c(C(=O)O)cnn1-c1cccc(-c2cccc(C)c2OCc2ccc3c(c2C)CCN(CC2COCCO2)C3)n1 (stereo in doubt) [Compound 185, 1-{6-[2-(2-(S)-1-[1,4]Dioxan-2-ylmethyl-5-methyl-1,2,3,4-tetrahydro-isoquinolin-6-ylmethoxy)-3-methyl-phenyl]-pyridin-2-yl}-5-ethoxy-1H-pyrazole-4-carboxylic acid]
11 | 110 (≈ 198 µM) | 79 (≈ 142 µM) | 78 (≈ 141 µM) | <24 | COc1c(C(=O)O)cnn1-c1cccc(-c2cccc(C)c2OCc2cc(C)c3c(c2)CCN(C2CCOC2)C3)n1 (stereo not shown) [Compound 242]
12 | 110 (≈ 187 µM) | 79 (≈ 134 µM) | 78 (≈ 133 µM) | 28 | COc1c(C(=O)O)cnn1-c1cccc(-c2cccc(C)c2OCc2ccc3c(c2C)CCN(CC2CC(F)(F)C2)C3)n1 [Compound 29]
13 | 100 (≈ 174 µM) | 80 (≈ 139 µM) | 80 (≈ 139 µM) | 29 | COc1c(C(=O)O)cnn1-c1cccc(-c2cccc(C)c2OCc2ccc3c(c2)CCN(CC2CC(F)(F)C2)C3)n1 [Compound 26]
14 | 81 (≈ 135 µM) | 70 (≈ 117 µM) | 72 (≈ 120 µM) | <24 | COc1c(C(=O)O)cnn1-c1cccc(-c2cccc(C)c2OCc2ccc3c(c2C)CCN(C[C@H]2COCCO2)CC3)n1 [Compound 203]
15 | 100 (≈ 175 µM) | 72 (≈ 126 µM) | 94 (≈ 165 µM) | <24 | CCOc1c(C(=O)O)cnn1-c1cccc(-c2cccc(C)c2OCc2ccc3c(c2OC)CCN(C2COC2)C3)n1 [Compound 221]
16 | 92 (≈ 150 µM) | 79 (≈ 129 µM) | 75 (≈ 122 µM) | <24 | CCOc1c(C(=O)O)cnn1-c1cccc(-c2cccc(C)c2OCc2ccc3c(c2C)CCN(C[C@H]2COCCO2)CC3)n1 [Compound 212]
17 | 81 (≈ 133 µM) | 64 (≈ 105 µM) | 69 (≈ 113 µM) | <24 | CCOc1c(C(=O)O)cnn1-c1cccc(-c2cccc(C)c2OCc2ccc3c(c2C)CCN(C[C@H]2CCCCO2)CC3)n1 [Compound 214]
18 | 110 (≈ 187 µM) | 86 (≈ 146 µM) | 90 (≈ 153 µM) | <24 | COc1c(C(=O)O)cnn1-c1cccc(-c2cccc(C)c2OCc2ccc3c(c2Cl)CCN(C2CCOCC2)C3)n1 [Compound 18]
19 | 94 (≈ 169 µM) | 67 (≈ 121 µM) | 93 (≈ 168 µM) | <24 | CCc1cc(COc2c(C)cccc2-c2cccc(-n3ncc(C(=O)O)c3OC)n2)cc2c1CN(C1COC1)CC2 [Compound 249]

Row | solubility at 24 h ([1]; pH 2.2, aqueous buffer) [µg/mL] | solubility at 24 h ([1]; pH 4.5, aqueous buffer) [µg/mL] | solubility at 24 h ([1]; pH 6.8, aqueous buffer) [µg/mL] | HLM (% Qh) [2] [% Qh] | SMILES
20 | 100 (≈ 172 µM) | 80 (≈ 137 µM) | 73 (≈ 125 µM) | <24 | CCOc1c(C(=O)O)cnn1-c1cccc(-c2cccc(C)c2OCc2ccc3c(c2C)CCN(C[C@H]2CCOC2)C3)n1 [Compound 193]
21 | 110 (≈ 193 µM) | 83 (≈ 146 µM) | 90 (≈ 158 µM) | <24 | COc1c(C(=O)O)cnn1-c1cccc(-c2cccc(C)c2OCc2ccc3c(c2C)CCN(CC2(C)COC2)C3)n1 [Compound 28]
22 | 0.68 (≈ 1.14 µM) | 2.5 (≈ 4.19 µM) | 78 (≈ 131 µM) | <24 | CCOc1c(C(=O)O)cnn1-c1cccc(-c2cccc(C)c2OCc2ccc3c(c2C)CCN(C2CCOCC2)C3=O)n1 [Compound 194]
23 | 98 (≈ 164 µM) | 73 (≈ 122 µM) | 86 (≈ 144 µM) | 26 | CCOc1c(C(=O)O)cnn1-c1cccc(-c2cccc(C)c2OCc2ccc3c(c2C)CCN(C[C@H]2CCCO2)CC3)n1 [Compound 233]
24 | 110 (≈ 203 µM) | 88 (≈ 163 µM) | 90 (≈ 166 µM) | <24 | COc1c(C(=O)O)cnn1-c1cccc(-c2cccc(C)c2OCc2ccc3c(c2)CCN(C2CCOC2)C3)n1 (stereo not shown) [Compound 15]
25 | 92 (≈ 157 µM) | 69 (≈ 118 µM) | 67 (≈ 115 µM) | <24 | COc1c(C(=O)O)cnn1-c1cccc(-c2cccc(C)c2OCc2cc(C)c3c(c2)CCN(CC2COCCO2)C3)n1 (stereo not shown) [Compound 240]
26 | 77 (≈ 135 µM) | 55 (≈ 96.7 µM) | 52 (≈ 91.4 µM) | <24 | COc1c(C(=O)O)cnn1-c1cccc(-c2cccc(C)c2OCc2ccc3c(c2C)CCN(C2CCCOC2)C3)n1 (stereo not shown) [Compound 238]
27 | 99 (≈ 182 µM) | 79 (≈ 146 µM) | 82 (≈ 151 µM) | <24 | COCC(C)N1CCc2cc(COc3c(C)cccc3-c3cccc(-n4ncc(C(=O)O)c4OC)n3)ccc2C1 (stereo not shown) [Compound 23]
28 | 96 (≈ 163 µM) | 70 (≈ 119 µM) | 75 (≈ 127 µM) | 29 | COc1c(C(=O)O)cnn1-c1cccc(-c2cccc(C)c2OCc2ccc3c(c2Cl)CCN(CC2(C)COC2)C3)n1 [Compound 19]
29 | 120 (≈ 216 µM) | 99 (≈ 178 µM) | 98 (≈ 176 µM) | <24 | COCC(C)N1CCc2cc(COc3c(C)cccc3-c3cccc(-n4ncc(C(=O)O)c4OC)n3)cc(C)c2C1 (stereo not shown) [Compound 244]
30 | 82 (≈ 144 µM) | 68 (≈ 120 µM) | 73 (≈ 128 µM) | <24 | COc1c(C(=O)O)cnn1-c1cccc(-c2cccc(C)c2OCc2ccc3c(c2C)CCN([C@@H]2CCOC2)CC3)n1 [Compound 207]
31 | 120 (≈ 206 µM) | 100 (≈ 172 µM) | 93 (≈ 160 µM) | <24 | COc1c(C(=O)O)cnn1-c1cccc(-c2cccc(C)c2OCc2ccc3c(c2C)CCN(C[C@@H]2CCCCO2)C3)n1 [Compound 198]
32 | 110 (≈ 203 µM) | 81 (≈ 150 µM) | 84 (≈ 155 µM) | <24 | COc1c(C(=O)O)cnn1-c1cccc(-c2ccccc2OCc2ccc3c(c2)CCN(C2CCOCC2)C3)n1 [Compound 209]
33 | 100 (≈ 170 µM) | 81 (≈ 138 µM) | 73 (≈ 124 µM) | 34 | COc1c(C(=O)O)cnn1-c1cccc(-c2cccc(C)c2OCc2cc(F)c3c(c2)CCN(C[C@H]2CCCCO2)C3)n1 [Compound 229]
34 | 94 (≈ 165 µM) | 55 (≈ 96.7 µM) | 52 (≈ 91.4 µM) | <24 | COc1c(C(=O)O)cnn1-c1cccc(-c2cccc(C)c2OCc2cc(C)c3c(c2)CCN(C2CCCOC2)C3)n1 (stereo not shown) [Compound 237]
35 | 90 (≈ 162 µM) | 75 (≈ 135 µM) | 71 (≈ 128 µM) | <24 | COc1c(C(=O)O)cnn1-c1cccc(-c2cccc(C)c2OCc2ccc3c(c2)CN(CC2COCCO2)C3)n1 (stereo not shown) [Compound 247]
36 | 98 (≈ 168 µM) | 83 (≈ 142 µM) | 86 (≈ 148 µM) | 52 | CCOc1c(C(=O)O)cnn1-c1cccc(-c2cccc(C)c2OCc2ccc3c(c2C)CCN(C[C@H]2CCO2)CC3)n1 [Compound 226]
37 | 95 (≈ 163 µM) | 78 (≈ 134 µM) | 81 (≈ 139 µM) | <24 | CCOc1c(C(=O)O)cnn1-c1cccc(-c2cccc(C)c2OCc2ccc3c(c2C)CCN([C@H]2CCOC2)CC3)n1 [Compound 225]
